# According to US4666892A, “Method and composition for hepatitis treatment with pyrimidine nucleoside compounds” (Sloan-Kettering Memorial Cancer Center, priority 1986, dated 1987):
# Where two headings read alike, the source gives them in different places.
# Key:
# HBV DNA polymerase [1] = molecular target: T1, HBV DNA polymerase (Hepatitis B virus genotype D subtype ayw, UniProt P03156); test: Time course of viral DNA synthesis with the analog as alternate substrate; format: biochemical, hepatitis B virion (HBV); conditions: for DNA synthesis when the natural triphosphate is substituted by the analog: ara-TTP for dTTP, ara-CTP for dCTP, ACVTP for dGTP; for Viral DNA syntheses with dTTP substituted by the analog: [3H] dATP labelled substrate
# T1 construct: HBV particles containing DNA polymerase activity were purified from the serum of an immunosuppressed patient; from tissue; host or cells: virus particles purified from the serum of an HBsAg-positive immunosuppressed patient
# Description: (§1) DNA polymerase was assayed as described by Kaplan et al (J. Virol., 12, 995 (1973)) with minor modification. The assay was performed in a 50 ul reaction mixture containing 50 mM Tris-HCl pH=7,6,40 mM MgC12, 60 mM NH4 Cl, 100 uM each dATP, dCTP and dGTP, 0.2-0.7 uM [^3 H] dTTP (30 Ci/mmol), 10 mM 2-mercaptoethanol, 0.5% Nonidet P 40 and enzyme. The reaction was started by addition of the virus particles with 2-mercaptoethanol and Nonidet P 40. Incubation was at 37° C. for 1 h. Acid insoluble radioactive material was collected on a glass fiber filter (GF/C Whatman) Filters were washed 5 times with cold 5% trichloracetic acid containing 10 mM sodium pyrophosphate, then with 95% ethanol. Radioactivity of the dried filter was measured in a liquid scintillation counter.
# The [^32 p] DNA product by the endogenous DNA polymerase reaction was analysed by agarose gel electrophoresis as described by Summers et al (Proc. Natl. Acad. Sci. U.S.A. 72, 4597-4601 (1975)). The reaction was made in 15 ul of the standard DNA polymerase mixture with 1 uM of [^32 p] dCTP (500 Ci/mmol) as labelled nucleotide.
# After 2 h incubation at 37° C., the reaction was terminated by the addition of 20 ul of 10 mM Tris, 10 mM EDTA, 0, 1 mg per ml of proteinase K, 0, 1% (wt/vol) sodium dodecyl sulfate, followed by further incubation for 60 mn at 37° C. 5 ul of 5% (wt/vol) sucrose, 1% bromophenol blue was added, the entire mixture was heated for […] at 65° C., immediately colded at 4° C. and then analyzed by electrophoresis on a horizontal slab gel of 1% agarose. After electrophoresis, the gel was dried and developed by autoradiography.
# To determine the effect of the three analogs on viral DNA synthesis, a time course experiment was performed with HBV DNA polymerase. [^3 ] dATP was used as the labelled substrate. […] The substitution of dTTP by BVdUTP permitted the viral DNA syntheses up to 46 percent of the control after 3 h of reaction. This value increased to 67 percent of the optimal activity after 4 h of reaction. […] The DNA synthesized with BVdUTP as alternate substrate was analyzed by agarose gel electrophoresis.
# WHV DNA polymerase [2] = molecular target: T2, WHV DNA polymerase (Woodchuck hepatitis B virus, UniProt P03160); test: WHV endogenous DNA polymerase assay, inhibition by nucleoside triphosphate analogs; format: biochemical; conditions: for ID50 relative to ID50 of FIACTP: times more than FIACTP; for Affinity of WHV DNA polymerase to the analog compared with HBV DNA polymerase: WHV versus HBV DNA polymerase
# T2 construct: WHV was obtained from a serum pool of five woodchucks (Marmota monax) chronic carriers of the virus; from tissue; host or cells: virus particles purified from a serum pool of five chronically infected woodchucks (imported from Pennsylvania)
# Source text: (§2) HBV particles containing DNA polymerase activity were purified from the serum of an immunosuppressed patient, positive for HBsAg. WHV was obtained from a serum pool of five woodchucks (Marmota monax) chronic carriers of the virus. The woodchucks initially imported from Pennsylvania (Dutchland Lab. Pennsylvania, USA) belonged to a colony followed for over one year by serological tests (Hantz et al, J. Virol. Metho. 7, 45-55 (1983)).
# (§3) Virus was purified by centrifugation on sucrose and isopycnic CsCl gradients. (Hantz et al submitted for publication).
# as §1
# (§4) The relative sensitivities of both enzymes to CVTP, FIACTP and BVdUTP were compared using an excess of nucleotides. For each inhibitor, the concentration of the corresponding radioactive triphosphate was maintained at 2 to 3 times the Km value while the remaining nucleotides were in great excess (50 uM).
# (§5) Although the mode of action for the various compounds is known to be different, the nature of ACVTP, FIACTP and BVdUTP inhibition of viral DNA synthesis catalyzed by HBV and WHV DNA polymerases was examined by determining the extent of inhibition with increasing concentrations of the substrates. In assays with ACVTP, [^3 H] dGTP was the rate limiting substrate while the other three nucleotides were in excess. The same conditions were used with [^3 H] dCTP for FIACTP and [^3 H] dTTP for BVdUTP inhibition. […] Similar results were obtained for WHV DNA polymerase.
# HBV DNA polymerase [3] = molecular target: T1, HBV DNA polymerase; test: HBV endogenous DNA polymerase assay, inhibition by nucleoside triphosphate analogs; format: biochemical, hepatitis B virion (HBV); conditions: for ID50 relative to ID50 of FIACTP: times more than FIACTP; for Nature of inhibition (Lineweaver-Burk plots): versus dGTP (ACVTP), dCTP (FIACTP), dTTP (BVdUTP); for Relative efficiency as inhibitor of HBV DNA polymerase: excess of nucleotides (50 uM)
# Source text: as §2, §3, §1, §4, §5
# HBV DNA polymerase [4] = molecular target: T1, HBV DNA polymerase; test: Time course of HBV DNA synthesis, normal substrate added after 120 min with analog; format: biochemical, hepatitis B virion (HBV); conditions: for HBV DNA synthesis after addition of the normal substrate at 120 min of reaction with the analog: ACVTP 5 uM then 100 um dGTP, ara-ATP then dATP, ara-CTP then dCTP
# Description: as §1
# The effect of ACVTP on HBV DNA synthesis was also studied in a time course experiment ^3 H] dTTP was the labelled substrate. The reaction was initiated without dGTP or with 5 um ACVTP instead of dGTP. […] After 120 min of reaction, 100 uM of dGTP was added. In the assay without dGTP only, the addition of dGTP increased DNA synthesis as expected.
# HBV replication = conditions: patients with chronic hepatitis B; Weller et al 1982, 1983; cited from earlier work
# WHV DNA polymerase [5] = molecular target: T2, WHV DNA polymerase; test: Analog as alternate substrate of WHV DNA polymerase; format: biochemical
# Solubility in water = format: physicochemical
# Source text: These compounds are soluble in water and therefore water or water based solutions are preferred as solvents for treating patients. The solubilities are as follows:
# The solubility of these compounds can be increased by adding acid or base to the aqueous solvent.
# [6] = water, at 28°, read-out: Solubility
# T2 sequence (P03160 whole entry): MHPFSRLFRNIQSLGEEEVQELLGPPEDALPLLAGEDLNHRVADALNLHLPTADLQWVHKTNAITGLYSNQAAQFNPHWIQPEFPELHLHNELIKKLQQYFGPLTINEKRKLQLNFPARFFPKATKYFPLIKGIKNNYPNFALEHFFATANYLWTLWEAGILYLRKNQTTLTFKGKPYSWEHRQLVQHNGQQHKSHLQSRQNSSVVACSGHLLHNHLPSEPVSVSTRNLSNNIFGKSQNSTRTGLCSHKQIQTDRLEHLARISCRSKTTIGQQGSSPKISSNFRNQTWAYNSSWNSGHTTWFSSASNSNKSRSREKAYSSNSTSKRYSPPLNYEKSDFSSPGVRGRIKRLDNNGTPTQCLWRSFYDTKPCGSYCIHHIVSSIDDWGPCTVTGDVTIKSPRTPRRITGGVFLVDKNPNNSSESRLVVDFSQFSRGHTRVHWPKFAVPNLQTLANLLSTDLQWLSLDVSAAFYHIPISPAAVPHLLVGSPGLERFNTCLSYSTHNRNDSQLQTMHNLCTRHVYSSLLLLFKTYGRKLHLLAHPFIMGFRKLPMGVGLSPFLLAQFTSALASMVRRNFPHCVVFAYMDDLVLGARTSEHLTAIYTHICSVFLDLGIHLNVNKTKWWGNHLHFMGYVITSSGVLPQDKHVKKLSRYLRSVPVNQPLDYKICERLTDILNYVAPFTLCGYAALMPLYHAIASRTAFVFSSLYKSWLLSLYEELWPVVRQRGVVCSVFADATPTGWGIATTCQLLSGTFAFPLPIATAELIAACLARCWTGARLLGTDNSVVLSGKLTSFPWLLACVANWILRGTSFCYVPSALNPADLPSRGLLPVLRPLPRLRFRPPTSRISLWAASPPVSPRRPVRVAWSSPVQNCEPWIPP
# T1 sequence (P03156 whole entry): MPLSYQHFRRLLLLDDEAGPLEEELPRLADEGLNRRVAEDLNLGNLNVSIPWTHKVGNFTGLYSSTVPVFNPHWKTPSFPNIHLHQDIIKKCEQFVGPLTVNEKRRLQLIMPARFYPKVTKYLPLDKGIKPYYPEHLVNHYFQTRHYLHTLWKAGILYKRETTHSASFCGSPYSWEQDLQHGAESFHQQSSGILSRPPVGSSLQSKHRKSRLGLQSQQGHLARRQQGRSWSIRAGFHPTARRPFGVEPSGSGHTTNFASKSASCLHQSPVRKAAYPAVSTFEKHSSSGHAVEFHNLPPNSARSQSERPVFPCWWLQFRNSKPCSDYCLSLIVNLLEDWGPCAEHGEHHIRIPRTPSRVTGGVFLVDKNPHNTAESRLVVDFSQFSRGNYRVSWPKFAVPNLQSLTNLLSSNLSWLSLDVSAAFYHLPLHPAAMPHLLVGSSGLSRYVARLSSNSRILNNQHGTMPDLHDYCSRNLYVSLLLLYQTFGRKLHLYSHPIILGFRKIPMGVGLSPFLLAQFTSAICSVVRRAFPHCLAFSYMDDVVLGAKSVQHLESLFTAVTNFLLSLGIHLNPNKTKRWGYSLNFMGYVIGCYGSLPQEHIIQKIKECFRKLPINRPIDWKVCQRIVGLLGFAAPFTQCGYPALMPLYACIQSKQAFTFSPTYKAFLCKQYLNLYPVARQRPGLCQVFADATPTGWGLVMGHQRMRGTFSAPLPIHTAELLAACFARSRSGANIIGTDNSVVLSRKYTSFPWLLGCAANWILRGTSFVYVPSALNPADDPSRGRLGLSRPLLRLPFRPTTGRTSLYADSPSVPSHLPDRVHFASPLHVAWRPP
compound,measurement,setting,value
Nc1nc2c(ncn2COCCOP(=O)(O)OP(=O)(O)OP(=O)(O)O)c(=O)[nH]1 [ACVTP],DNA synthesis when the natural triphosphate is substituted by the analog,HBV DNA polymerase [1],did not increase the polymerization process
same,ID50 relative to ID50 of FIACTP,WHV DNA polymerase [2]; WHV DNA polymerase,18 times
same,Affinity of WHV DNA polymerase to the analog compared with HBV DNA polymerase,WHV DNA polymerase [2],lower affinity
same,ID50 relative to ID50 of FIACTP,HBV DNA polymerase [3]; HBV DNA polymerase,18 times
same,Nature of inhibition (Lineweaver-Burk plots),HBV DNA polymerase [3]; HBV DNA polymerase,competitive
same,Incorporation of [3H] dTMP with analog instead of dGTP,"HBV DNA polymerase [4]; 5 um ACVTP instead of dGTP, first 120 min",no incorporation
same,HBV DNA synthesis when reaction is started with analog and dGTP together,HBV DNA polymerase [4]; ACVTP 5 uM and dGTP 100 uM from start,a significant DNA synthesis was observed
same,HBV DNA synthesis after addition of the normal substrate at 120 min of reaction with the analog,HBV DNA polymerase [4],no DNA synthesis was observed
Nc1nc2c(ncn2COCCO)c(=O)[nH]1 [ACV],In vivo inhibition of HBV replication,HBV replication,inhibition of HBV replication
O=c1[nH]c(=O)n([C@H]2C[C@H](O)[C@@H](COP(=O)(O)OP(=O)(O)OP(=O)(O)O)O2)cc1/C=C/Br [BVdUTP],DNA synthesized with analog as alternate substrate (agarose gel electrophoresis),HBV DNA polymerase [1]; HBV DNA,Only incomplete filling of the single stranded region
same,Efficiency as alternate substrate,HBV DNA polymerase [1]; HBV DNA polymerase,most efficient alternate substrate
same,Viral DNA syntheses with dTTP substituted by the analog,HBV DNA polymerase [1]; after 3 h of reaction,46% of the control
same,Viral DNA syntheses with dTTP substituted by the analog,HBV DNA polymerase [1]; after 4 h of reaction,67% of the optimal activity
same,ID50 relative to ID50 of FIACTP,WHV DNA polymerase [2]; WHV DNA polymerase,5 times
same,Affinity of WHV DNA polymerase to the analog compared with HBV DNA polymerase,WHV DNA polymerase [2],lower affinity
same,ID50 relative to ID50 of FIACTP,HBV DNA polymerase [3]; HBV DNA polymerase,5 times
same,Nature of inhibition (Lineweaver-Burk plots),HBV DNA polymerase [3]; HBV DNA polymerase,competitive
same,DNA synthesized with analog as alternate substrate (agarose gel electrophoresis),WHV DNA polymerase [5]; WHV DNA,Only incomplete filling of the single stranded region
same,Efficiency as alternate substrate,WHV DNA polymerase [5]; WHV DNA polymerase,most efficient alternate substrate
"Nc1nc(=O)n([C@@H]2O[C@H](CO)[C@@H](O)[C@@H]2F)cc1I [FIAC, 2'-fluoro-2'-deoxy-arabinosyl-5-iodocytosine]",solubility,"Solubility in water; water with 1 eq hcl, aqueous solvent with about one molar equivalent of hydrochloric acid, read-out: Solubility with added acid",~250 mg/mL
same,solubility,"Solubility in water; water, at 21°, read-out: Solubility",7.2 mg/mL
Nc1nc(=O)n([C@@H]2O[C@H](COP(=O)(O)OP(=O)(O)OP(=O)(O)O)[C@@H](O)[C@@H]2F)cc1I [FIACTP],Incorporation of [3H] dAMP with the analog instead of dCTP,HBV DNA polymerase [1]; after 3 h of reaction,about 10 % of the control
same,IC50,"WHV DNA polymerase [2]; WHV DNA polymerase, radioactive triphosphate at 2 to 3 times Km, remaining nucleotides 50 uM, read-out: ID50 (concentration of triphosphate required to inhibit 50 percent of DNA polymerase)",50 nM
same,Affinity of WHV DNA polymerase to the analog compared with HBV DNA polymerase,WHV DNA polymerase [2],lower affinity
same,IC50,"HBV DNA polymerase [3]; HBV DNA polymerase, radioactive triphosphate at 2 to 3 times Km, remaining nucleotides 50 uM, read-out: ID50 (concentration of triphosphate required to inhibit 50 percent of DNA polymerase)",50 nM
same,Nature of inhibition (Lineweaver-Burk plots),HBV DNA polymerase [3]; HBV DNA polymerase,competitive
same,Relative efficiency as inhibitor of HBV DNA polymerase,HBV DNA polymerase [3],most efficient inhibitor
"O=c1[nH]c(=O)n([C@@H]2O[C@H](CO)[C@@H](O)[C@@H]2F)cc1I [FIAU, 2'-fluoro-2'-deoxy-arabinosyl-5-iodouracil]",Solubility with added base,Solubility in water; aqueous solvent with one equivalent of sodium hydroxide (sodium salt),increased many fold
same,solubility,Solubility in water; [6],4 mg/mL
"Cc1cn([C@@H]2O[C@H](CO)[C@@H](O)[C@@H]2F)c(=O)[nH]c1=O [FMAU, 2'-fluoro-2'-deoxy-arabinosyl-5-methyluracil]",solubility,"Solubility in water; water, at 24°, read-out: Solubility",66 mg/mL
same,solubility,Solubility in water; [6],81 mg/mL
Nc1ncnc2c1ncn2[C@@H]1O[C@H](COP(=O)(O)OP(=O)(O)OP(=O)(O)O)[C@@H](O)[C@@H]1O [ara-ATP],HBV DNA synthesis after addition of the normal substrate at 120 min of reaction with the analog,HBV DNA polymerase [4],increased the HBV DNA synthesis
Nc1ccn([C@@H]2O[C@H](COP(=O)(O)OP(=O)(O)OP(=O)(O)O)[C@@H](O)[C@@H]2O)c(=O)n1 [ara-CTP],DNA synthesis when the natural triphosphate is substituted by the analog,HBV DNA polymerase [1],no significant incorporation
same,Relative efficiency as inhibitor of HBV DNA polymerase,HBV DNA polymerase [3],least efficient
same,HBV DNA synthesis after addition of the normal substrate at 120 min of reaction with the analog,HBV DNA polymerase [4],increased the HBV DNA synthesis
Cc1cn([C@@H]2O[C@H](COP(=O)(O)OP(=O)(O)OP(=O)(O)O)[C@@H](O)[C@@H]2O)c(=O)[nH]c1=O [ara-TTP],DNA synthesis when the natural triphosphate is substituted by the analog,HBV DNA polymerase [1],no significant DNA synthesis
